Experiments:
[1] = biological target: tACEdelta36NJ (tACE, C domain) (Homo sapiens, UniProt P12821); test: ACE inhibitory activity, fluorometric determination of phthaldialdehyde-derivatised His-Leu, tACE; format: biochemical; conditions: for inhibitory activity for ACE as compared to lisinopril: in words; for Ki: substrate ZPHL, enzyme + inhibitor incubated 3 hours at ambient temperature
Description: (§1) The ACE inhibitory activity (as tabulated in Table 1) was measured by the fluorometric determination of phthaldialdehyde-derivatised histidylleucine, a product of the enzyme reaction according to the method of Almquist et al.,^12 with some modifications. For tACEdelta36NJ and N-domain inhibition using Z-Phe-His-Leu as substrate:—10 μL of 0.05 mg/mL enzyme+120 μL inhibitor was incubated at ambient temperature for 3 hours. Inhibitor concentrations ranged from 2.0 μM to 500 μM. A 3.0 μL aliquot of this was assayed for enzyme activity using 30 μL of 1.0 mM […]. This was incubated (in triplicate) for 30 mins at 37° C. and stopped with 180 μL solution of 0.28N NaOH. To this alkalized mixture 12 μL of o-phthaldialdehyde (150 mM) was added and the mixture incubated for another 10 mins at room temperature. Reactions were stopped by adding 26 μL of 3N HCl. Fluorescence was measured at Ex=360 nm; Em=486 nm, 5×5 slit width along with a His-Leu standard calibration curve fluorometer: Varian Cary Eclipse plate reader.
(§2) All assays included enzyme incubated with buffer in the absence of inhibitor (i.e. 0 μM inhibitor concentration).

ACE N-domain = ACE N-domain (Homo sapiens, UniProt P12821); test: ACE inhibitory activity, fluorometric determination of phthaldialdehyde-derivatised His-Leu, N-domain; format: biochemical; conditions: substrate ZPHL; enzyme + inhibitor incubated 3 hours at ambient temperature; read-out: Ki (N-dom) ZPHL
Chain of ACE N-domain (P12821 40-624 limits assumed): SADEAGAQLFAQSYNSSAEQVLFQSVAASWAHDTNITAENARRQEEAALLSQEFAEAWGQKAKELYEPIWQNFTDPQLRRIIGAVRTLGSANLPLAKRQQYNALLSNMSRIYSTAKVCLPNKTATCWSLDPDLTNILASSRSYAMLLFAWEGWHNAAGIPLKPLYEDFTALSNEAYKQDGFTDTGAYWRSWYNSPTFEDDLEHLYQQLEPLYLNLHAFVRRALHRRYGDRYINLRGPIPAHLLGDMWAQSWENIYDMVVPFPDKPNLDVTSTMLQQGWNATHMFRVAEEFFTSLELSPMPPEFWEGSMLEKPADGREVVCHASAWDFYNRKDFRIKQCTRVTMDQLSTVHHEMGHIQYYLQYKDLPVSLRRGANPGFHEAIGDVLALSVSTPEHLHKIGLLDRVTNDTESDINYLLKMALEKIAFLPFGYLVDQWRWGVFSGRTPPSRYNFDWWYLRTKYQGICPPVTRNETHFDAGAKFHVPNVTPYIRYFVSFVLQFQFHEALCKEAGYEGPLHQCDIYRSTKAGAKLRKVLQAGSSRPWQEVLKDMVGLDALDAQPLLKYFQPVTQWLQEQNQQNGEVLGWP
Description: as §1, §2

Chain of tACEdelta36NJ (tACE, C domain) (P12821 642-1230 limits assumed): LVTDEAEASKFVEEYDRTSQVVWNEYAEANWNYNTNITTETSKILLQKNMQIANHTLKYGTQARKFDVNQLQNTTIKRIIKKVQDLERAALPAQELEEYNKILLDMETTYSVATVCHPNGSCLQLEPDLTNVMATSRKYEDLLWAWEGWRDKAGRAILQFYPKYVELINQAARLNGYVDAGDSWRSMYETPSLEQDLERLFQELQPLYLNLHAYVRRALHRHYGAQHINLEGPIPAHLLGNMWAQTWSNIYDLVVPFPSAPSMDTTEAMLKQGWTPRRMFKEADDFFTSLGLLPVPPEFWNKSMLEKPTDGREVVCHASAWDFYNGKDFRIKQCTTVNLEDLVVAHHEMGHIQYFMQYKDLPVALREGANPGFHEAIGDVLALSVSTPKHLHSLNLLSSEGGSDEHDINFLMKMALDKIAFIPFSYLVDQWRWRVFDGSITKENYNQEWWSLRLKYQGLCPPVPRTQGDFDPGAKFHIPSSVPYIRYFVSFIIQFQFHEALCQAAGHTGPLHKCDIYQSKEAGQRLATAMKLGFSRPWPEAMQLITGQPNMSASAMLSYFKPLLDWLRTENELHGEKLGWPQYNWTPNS

Row | SMILES | inhibitory activity for ACE as compared to lisinopril [1] | Ki (ACE N-domain) | melting point | Ki [1] | C-domain specific (fold) ([1]; tACE (C domain) versus N-domain) | domain selectivity (in words) ([1]; N-domain versus tACE (C domain))
1 | O=C(N[C@@H](Cc1ccccc1)C(=O)CCC(=O)N1CCC[C@H]1C(=O)O)c1ccccc1 [Compound 5a, (5S)-5-[(N-benzoyl)amino]-4-oxo-6-phenyl-hexanoyl-L-proline] | weak inhibitory activity | – | – | – | – | –
2 | O=C(CCC(=O)[C@H](Cc1ccccc1)NC(=O)c1ccccc1)N[C@@H](Cc1c[nH]c2ccccc12)C(=O)O [Compound 5b, (5S)-5-[(N-benzoyl)amino]-4-oxo-6-phenyl-hexanoyl-L-tryptophan] | weak inhibitory activity | 196 µM | 171 to 173 °C | 0.8 µM | 245 fold | –
3 | O=C(CCC(=O)[C@H](Cc1ccccc1)NC(=O)c1ccccc1)N[C@@H](Cc1ccccc1)C(=O)O [Compound 5c, (5S)-5-[(N-benzoyl)amino]-4-oxo-6-phenyl-hexanoyl-L-phenylalanine] | weak inhibitory activity | 84.3 µM | – | 23.7 µM | – | –

Now from value to molecule, other results behind:

Row | inhibitory activity for ACE as compared to lisinopril [1] | Ki (ACE N-domain) | melting point | Ki [1] | C-domain specific (fold) ([1]; tACE (C domain) versus N-domain) | SMILES | domain selectivity (in words) ([1]; N-domain versus tACE (C domain))
4 | weak inhibitory activity | 33.6 µM | – | 144 µM | – | CC(C)(C)OC(=O)N[C@@H](Cc1ccccc1)C(=O)CCC(=O)N1CCC[C@H]1C(=O)O [Compound 11a, (5S)-6-phenyl-5-[(tert-butyloxycarbonyl)-amino]-4-oxo-hexanoyl-L-proline] | inhibits N-domain more effectively than tACE
5 | – | – | 141 to 143 °C | – | – | CC(C)(C)OC(=O)N[C@@H](Cc1ccccc1)C(=O)CCC(=O)N[C@@H](Cc1c[nH]c2ccccc12)C(=O)O [Compound 11b, (5S)-6-phenyl-5-[(tert-butyloxycarbonyl)-amino]-4-oxo-hexanoyl-L-tryptophan] | –
